Test results from paper PMC4414571, “Peptides of Presenilin-1 Bind the Amyloid Precursor Protein Ectodomain and Offer a Novel and Specific Therapeutic Approach to Reduce ß-Amyloid in Alzheimer’s Disease” (PLoS ONE, 2015).
pKd: −log10 of the molar value. Entries after “also recorded” stand apart in the source; their conditions may differ. Ends that are not written are not given here.

Legend:
[1] = test system: NICD / γ-secretase in Jurkat cells; assay: NICD levels in extracts of Jurkat cells by ELISA (γ-secretase activity); conditions: 0–10 μM, 24 h, 450 nm, percent control, n = 2–3
Description: Jurkat cells (Sigma) were cultured in RPMI 1640 medium supplemented with 10% FCS, 2 mM L-glutamine, penicillin and streptomycin at 37°C in the presence of 5% CO2. […] After harvesting the cells, extracts were prepared by sonication in lysis buffer (Cell Signaling Technologies) supplemented with 1mM PMSF and complete protease inhibitor cocktail (Roche). The solubilized extracts were then used in ELISA assays to determine NICD levels, as a measure of γ-secretase activity, using the PathScan Cleaved Notch 1 (Val 1744) sandwich ELISA kit (Cell Signaling Technologies) according to the manufactuer’s protocols.

[2] = test system: NICD (γ-secretase activity); assay: NICD levels in neocortex of treated mThy1-hAPP mice by Western blot (γ-secretase activity); type: in vivo, mouse; conditions: peptide-infused mThy1-hAPP mice vs PBS, n = 5, two weeks after end of treatment
Description: Extracts of neocortex of mThy1-hAPP mice treated with P4, P8 or PBS only were electrophoresed on SDS gels and Western blotted with primary rabbit antibodies against NICD (Cat# 07–1232, Millipore) at 4°C overnight, followed by horse-radish peroxidase (HRP)-conjugated goat anti-rabbit IgG (Bio-Rad). The immunoreactive bands were detected by chemiluminescence (Thermo Scientific).
An optimal therapeutic approach to AD would avoid producing serious effects on other biochemically and physiologically important processes, as would occur if the cleavages of any of the other substrates of β- or γ-secretase were affected in the process of reducing the levels of Aβ. An especially well-studied example is the γ-secretase activity of PS-1 that is critically involved in the final enzymatic cleavage of Aβ from APP; it also functions in an essential developmental process that generates NICD from Notch. […] At the same time we analyzed the same tissue samples for their β-secretase (BACE-1) activity and APP expression. Extracts were prepared of the neocortex of Tg mice that had been treated with P4, P8 or PBS, and the levels of NICD were determined by Western blot analysis with a primary rabbit Ab against NICD. […]

[3] = biological target: T1, soluble ectodomain of APP (APPs, APP 695) (Homo sapiens, UniProt P05067); assay: Biolayer interferometry, biotinylated peptides on streptavidin biosensors vs purified soluble APP (APPs); type: binding; conditions: 30°C, biotinylated peptide on SA biosensors; for koff / kon / pKd: 1:1 model; for pKd: k off/k on, Kinetics Buffer (1X PBS, 0.002% Tween-20, 0.01% BSA)
T1 construct: host or cells: Sf9 insect cells (baculovirus), conditioned medium
Description: Sf9 cells (ATCC CRL 1711) were grown in TMN-FH complete medium (Pharmingen) in suspension and infected at a multiplicity of infection of 2 with a titred stock of recombinant virus expressing human APP695. Conditioned media and/or cells were harvested 6 days after infection. Cells and debris were removed by centrifugation (at 1000 x g for 15 min).
Recombinant baculoviruses were produced according to published protocols. A fragment containing full-length APP 695 was subcloned into the baculovirus transfer vector pBlueBac3 (Invitrogen). The resulting recombinant vector was co-transfected with baculovirus DNA into sf9 cells. Recombinant APP expression was verified by Western blot hybridization using mouse MAb against human APP (Cat # MAB348, Millipore).
APPs was purified from baculovirus conditioned medium to >95% purity, as assessed by densitometry analysis of Coomassie stained SDS PAGE gels, by Arvys Proteins, Stamford, CT, using the following strategy. The conditioned medium proteins were purified by heparin-affinity chromatography, followed by two gel filtration chromatography steps over HiPrep Sephacryl S300 columns and two steps of anion exchange chromatography on HiTrapQ columns.
The binding affinities of peptides P1, scrambled P1, P4, P5, P7 and P8 for the soluble ectodomain of APP or control IgG were measured by biolayer interferometry on an Octet RED96 System (Pall FortéBio Corp., Menlo Park, CA). This system monitors interference of light reflected from two sources (an internal reflection surface and the liquid/solid interface of a fiber optic sensor) to measure the rate of binding of molecules to the biosensor surface.
Peptides were synthesized and biotinylated at the NH2-terminus by Dr. Michael Freydkin at Biopeptides, Inc., San Diego, CA, and purified to >95% by HPLC. Biotinylated peptides were loaded onto Streptavidin (SA) biosensors (Pall FortéBio Corp.) at empirically determined concentrations. All affinity measurements were carried out in Kinetics Buffer (KB) (1X PBS, 0.002% Tween-20, and 0.01% BSA) at 30°C. Typically, the biosensors were pre-equilibrated in KB for 120s, loaded with a biotinylated peptide at optimal concentrations and times, quenched with 10 μg/ml biocytin in KB for 180s, brought to baseline in KB for 120s and transferred to wells containing purified APPs (0–200 nM). Multiple negative controls were run for each peptide including association buffer only (no APP) or with IgG replacing APP. Binding kinetics were calculated using the FortéBio Data Analysis v7.1 software. The association (k on) and dissociation (k off) rate constants were obtained by fitting the association and dissociation data to a 1:1 model. Binding affinity, KD, was calculated as k off/k on.

[4] = ref evidence that will be presented elsewhere, cited from earlier work
Excerpt: Two types of technologies have largely been pursued in the field thus far in efforts to reduce the levels of Aβ: β- or γ- secretase inhibitors or modulators, and the use of Aβ-specific monoclonal antibodies. Neither approach has been entirely successful, and γ-secretase inhibitors have been particularly problematic because of off-target effects due to the inhibition of their other substrates, Notch in particular.

[5] = test system: Aβ deposits in mThy1-hAPP transgenic mice; assay: Plaque load / Aβ immunolabeling in brain sections of mThy1-hAPP Tg mice after intraventricular peptide infusion; type: in vivo, mouse; conditions: 10 μM in PBS, two weeks infusion then two weeks rest, vs PBS controls
Description: These mice express mutated (London V717I and Swedish K670M/N671L) hAPP751 under the control of the neuronal murine (m)Thy-1 promoter. […] The Tg lines were maintained by crossing heterozygous Tg mice with non-Tg wild type C57BL/6 x DBA/2 F1 breeders. All animal studies were carried out according to protocols approved by the Institutional Animal Care and Use Committee of the University of California San Diego. […]
For analysis of Aβ deposits, blind-coded 40 μm vibratome sections were immunolabeled as previously described with mouse monoclonal antibodies (MAb) against human Aβ (clone 82E1, prepared against Aβ 1–16) followed by incubation with fluorescein isothiocyanate (FITC)-conjugated anti-mouse IgG (Vector Laboratories). Sections were imaged with a laser scanning confocal microscope (MRC1024, BioRad) as described and digital images were analyzed with the NIH Image 1.43 program to determine the percent area occupied by Aβ deposits. Three immunolabeled sections were analyzed per mouse and the average of individual measurements was used to calculate group means. […]

[6] = test system: Aβ 1–40 and 1–42 in mThy1-hAPP mouse brains; assay: Aβ40- and Aβ42-specific ELISA of neocortex extracts of peptide-treated mThy1-hAPP mice; type: in vivo; conditions: vs PBS, 10 μM peptide infusion, two weeks then two weeks rest
Description: These mice express mutated (London V717I and Swedish K670M/N671L) hAPP751 under the control of the neuronal murine (m)Thy-1 promoter. […] The Tg lines were maintained by crossing heterozygous Tg mice with non-Tg wild type C57BL/6 x DBA/2 F1 breeders. All animal studies were carried out according to protocols approved by the Institutional Animal Care and Use Committee of the University of California San Diego.
Age-matched male and female mThy1-hAPP Tg mice at 6 months of age were anesthetized and under sterile conditions, a 26 gauge stainless steel cannula (Alzet Brain Infusion kit 3, Durect Corp) was stereotaxically implanted into the right ventricle using the following coordinates: –1 mm using Bregma as a reference, lateral, 1.0 mm, depth, -3.0 mm, and secured to the cranium using superglue. The cannula was connected via a 5 mm coil of V3 Biolab vinyl tubing to a model 1002 osmotic minipump (Alzet, Durect Corp) surgically placed subcutaneously beneath the shoulder blades and surgically closed. The solutions (each peptide at 10 μM in PBS) were delivered directly into lateral ventricles at a flow rate of 0.25 μl per hour (100 μl total volume) for two weeks. […]
Samples from mouse cortex and hippocampus were homogenized in ice-cold, 6 M guanidine-HCl according to published protocols. Quantification of Aβ 1–40 and 1–42 was carried out by ELISA kits (Invitrogen). […]

[7] = test system: IMR-32 human neuroblastoma cell-line (endogenous Aβ40 or 42 production); assay: Endogenous Aβ40 and 42 production in IMR-32 culture medium by ELISA; type: cell-based; conditions: for Effect on Aβ40 and 42 production in vitro (in words): 0–5 μM peptide, 24 h, IMR-32 culture medium, ELISA
Description: A human neuroblastoma cell-line, IMR-32 (ATCC CCL-127) was cultured in MEM Earles medium containing 10% fetal bovine serum, 2 mM L-glutamine in the presence of penicillin and streptomycin. Equal numbers of cells (0.3 x 10^6 per well) were plated on 6-well plates overnight. Peptides (0–5 μM) were added to fresh culture medium (500 μl per well) and left in the incubator for 24 hours, after which the culture medium from each well was removed and stored at -80°C in the presence of 4-(2-Aminoethyl) benzenesulfonyl fluoride hydrochloride (AEBSF) and protease inhibitors. Prior to use, the culture medium was centrifuged in an eppendorf microfuge for 5 min at 4°C, the supernatant diluted with an equal volume of sample diluent buffer (Wako) and analyzed for the presence of Aβ40 or 42 using a commercial ELISA kit (Wako).

BACE-1 in IMR-32 cells = assay: BACE-1 activity in extracts of cultured IMR-32 cells; type: cell-based, human; conditions: 0–5 μM, 24 h, SensiZyme kit, 405 nm, percent control, n = 2–3
Description: IMR-32 cells in culture were treated with peptides P4, P8 and scrambled peptide P1 (0–5 μM) or the BACE-1 inhibitor […] (Selleck Chemicals) (0–500 nM) for 24 h. Cells were harvested and extracts prepared by sonication and solubilization in cell lysis buffer containing 1% Triton X-100 and EDTA (Cell Signaling Technologies) and supplemented with complete protease inhibitor cocktail (Roche) according to the manufacturer’s protocols. BACE-1 activity was measured as already described above using the SensiZyme BACE-1 activity assay kit.

T1 sequence (P05067 18-612 isoform P05067-4 limits assumed): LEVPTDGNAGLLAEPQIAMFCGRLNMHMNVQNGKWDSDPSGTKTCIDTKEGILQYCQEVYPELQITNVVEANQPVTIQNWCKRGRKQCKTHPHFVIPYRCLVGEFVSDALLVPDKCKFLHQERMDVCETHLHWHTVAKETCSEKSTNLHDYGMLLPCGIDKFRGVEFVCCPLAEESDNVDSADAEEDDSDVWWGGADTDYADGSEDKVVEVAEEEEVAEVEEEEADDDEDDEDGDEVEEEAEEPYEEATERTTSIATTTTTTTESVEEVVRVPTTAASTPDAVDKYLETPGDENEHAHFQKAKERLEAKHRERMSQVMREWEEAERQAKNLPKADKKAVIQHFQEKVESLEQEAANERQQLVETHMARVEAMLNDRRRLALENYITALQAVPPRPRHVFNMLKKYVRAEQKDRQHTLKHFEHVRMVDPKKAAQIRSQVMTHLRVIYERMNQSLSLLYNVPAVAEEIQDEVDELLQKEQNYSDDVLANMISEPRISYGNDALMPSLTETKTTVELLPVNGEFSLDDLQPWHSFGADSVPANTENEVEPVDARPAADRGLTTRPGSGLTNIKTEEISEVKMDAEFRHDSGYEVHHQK

Row | Substance | NICD levels in Jurkat cells, peptides (in words) [1] | NICD levels in neocortex (in words) [2] | koff ([3]; Kinetics Buffer) [s⁻¹] | kon ([3]; Kinetics Buffer) [M⁻¹ s⁻¹] | pKd [3] | Aβ immunolabeling / Aβ load in mouse brain (in words) [5] | Aβ40/42 in neocortex extracts by ELISA (in words) [6] | Effect on Aβ40 and 42 production in vitro (in words) [7] | also measured
1 | RRSLGHPEPLSNGRP [Peptide P4] | no appreciable change in the levels of NICD | not accompanied by any significant changes in the levels of NICD | 0.00134 | 83600 | 7.79 | – | – | – | –
2 | DEEEDEEL [Peptide P8] | no appreciable change in the levels of NICD | not accompanied by any significant changes in the levels of NICD | 0.00306 | 886000 | 8.46 | – | – | – | Stability (in words) ([4]; matrix not stated): stable; Brain delivery (in words) ([4]; rats): can be successfully delivered to the brain in rats
3 | PEPLSNGRP [Peptide P10, residues 47–55 of PS-1, fragment of P4] | – | – | – | – | – | less effective but still produced statistically significant reductions in Aβ levels compared to PBS controls in the neocortex | gave reductions in Aβ load, but to a lesser extent | did not give a significant reduction in Aβ in vitro; also recorded: had not shown a reduction of Aβ in vitro | –
4 | RRSLGH [Peptide P9, residues 41–46 of PS-1, fragment of P4] | – | – | – | – | – | less effective but still produced statistically significant reductions in Aβ levels compared to PBS controls in the neocortex | gave reductions in Aβ load, but to a lesser extent | did not give a significant reduction in Aβ in vitro; also recorded: had not shown a reduction of Aβ in vitro | –
5 | PTERLLKGTVRLKQQLDQDESDARNLRNNLNPQRGFMALDESERHENRSAMQVESHQNPHPPYETEQENDEGSGSEYSNV [SP1, scrambled P1, control peptide] | – | – | – | – | – | – | – | no significant changes in Aβ levels | BACE-1 activity in IMR-32 cells, peptides (in words) (BACE-1 in IMR-32 cells): remained essentially unchanged; Production of total Aβ and of Aβ 40 and 42 (summary in words) ([7]; Discussion summary, stated as in vitro and in vivo (mThy1-hAPP Tg mice)): did not reduce Aβ; Binding to purified APPs (in words) ([3]; Kinetics Buffer): no significant binding to APP
